Values of other authors in patent publication US20170281506A1, “COMPOSITION FOR TOPICAL APPLICATION FOR PREVENTING HAIR LOSS AND STIMULATING HAIR GROWTH” (priority 2011, published 2017).

System: men
Settings: oral, treated constantly for two years

CC(C)(C)NC(=O)[C@H]1CC[C@H]2[C@@H]3CC[C@H]4NC(=O)C=C[C@]4(C)[C@H]3CC[C@]12C [Finasteride, finasteride]
participants who maintained or increased the number of hairs after the treatment: 83% | participants who showed no hair loss: 17%
